The values below come from US20240376084A1, “INHIBITORS OF ALPHA-HEMOLYSIN OF STAPHYLOCOCCUS AUREUS” (Helmholtz-Zentrum Fur Infektionsforschung GmbH, priority 2021, published 2024).

The structures appear in SMILES notation. A value given as a limit tells only on which side of the number the result lay.

The target in test [1] is hemolysin alpha from Staphylococcus aureus (Staphylococcus aureus, UniProt P09616). Put plainly: cell-based.
The target of test [2] is S. aureus Alpha hemolysin (Staphylococcus aureus, UniProt P09616). Put plainly: cell-based. The following applies: A549-LDH Assay activity.
Chain of S. aureus Alpha hemolysin (P09616 27-319 limits assumed): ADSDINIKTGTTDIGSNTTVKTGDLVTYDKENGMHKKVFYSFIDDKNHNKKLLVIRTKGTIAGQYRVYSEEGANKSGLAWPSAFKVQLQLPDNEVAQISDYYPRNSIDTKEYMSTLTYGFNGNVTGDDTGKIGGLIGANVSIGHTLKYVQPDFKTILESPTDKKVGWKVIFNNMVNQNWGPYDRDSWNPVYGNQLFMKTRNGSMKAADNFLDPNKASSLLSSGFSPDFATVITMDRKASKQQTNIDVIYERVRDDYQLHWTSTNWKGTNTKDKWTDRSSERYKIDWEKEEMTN

Chain of hemolysin alpha from Staphylococcus aureus (P09616 27-319 limits assumed): as above

In general, EC50 refers to the concentration that produces a half-maximal response. Consider `Cc1cc2[nH]c(=O)c(=O)[nH]c2cc1S(=O)(=O)Nc1ccc(-c2ccc3c(c2)OCCO3)c(Cl)c1` [Compound 259, N-[3-chloro-4-(2,3-dihydro-1,4-benzodioxin-6-yl)phenyl]-7-methyl-2,3-dioxo-1,4-dihydroquinoxaline-6-sulfonamide], for which the concentration for a half-maximal effect (EC50) in test [1] is < 30 nM; in test [2], 100 to 1000 nM.

Consider `COc1ncc(-c2ccc(NS(=O)(=O)c3cc4[nH]c(=O)c(=O)[nH]c4cc3C)cc2Cl)cn1` [Compound 260, N-[3-chloro-4-(2-methoxypyrimidin-5-yl)phenyl]-7-methyl-2,3-dioxo-1,4-dihydroquinoxaline-6-sulfonamide], for which the EC50 in test [1] and in test [2] was 100 to 1000 nM throughout.

For `COc1ccc(-c2ccc(NS(=O)(=O)c3cc4[nH]c(=O)c(=O)[nH]c4cc3C)cc2Cl)c(F)c1` [Compound 261, N-[3-chloro-4-(2-fluoro-4-methoxy-phenyl)phenyl]-7-methyl-2,3-dioxo-1,4-dihydroquinoxaline-6-sulfonamide], the EC50 is < 30 nM in test [1] and 30 to 100 nM in test [2].

On to `Cc1cc2[nH]c(=O)c(=O)[nH]c2cc1S(=O)(=O)Nc1ccc(-c2ccc(S(C)(=O)=O)cc2F)c(Cl)c1` [Compound 262, N-[3-chloro-4-(2-fluoro-4-methylsulfonyl-phenyl)phenyl]-7-methyl-2,3-dioxo-1,4-dihydroquinoxaline-6-sulfonamide], for which the 50% effective concentration (EC50) in test [1] fell in the range of 1000 to 3500 nM; in test [2], 1000 to 6000 nM.

Take `Cc1cc2[nH]c(=O)c(=O)[nH]c2cc1S(=O)(=O)Nc1ccc(-n2cncn2)c(Cl)c1` [Compound 263, N-[3-chloro-4-(1,2,4-triazol-1-yl)phenyl]-7-methyl-2,3-dioxo-1,4-dihydroquinoxaline-6-sulfonamide]: the half-maximal effective concentration (EC50) was 1000 to 3500 nM in test [1] and 100 to 1000 nM in test [2].

For `Cc1cc2[nH]c(=O)c(=O)[nH]c2cc1S(=O)(=O)Nc1ccc(-n2ccnn2)c(Cl)c1` [Compound 264, N-[3-chloro-4-(triazol-1-yl)phenyl]-7-methyl-2,3-dioxo-1,4-dihydroquinoxaline-6-sulfonamide], the concentration giving a half-maximal response (EC50) in test [1] and in test [2] was 100 to 1000 nM each time.

As for `Cc1cc2[nH]c(=O)c(=O)[nH]c2cc1S(=O)(=O)Nc1ccc(-n2cncn2)cc1` [Compound 265, 7-methyl-2,3-dioxo-N-[4-(1,2,4-triazol-1-yl)phenyl]-1,4-dihydroquinoxaline-6-sulfonamide], the EC50 in test [1] is 1000 to 3500 nM; in test [2] it was 1000 to 6000 nM.

On to `Cc1ccc(-c2ccc(NS(=O)(=O)c3cc4[nH]c(=O)c(=O)[nH]c4cc3C)cc2Cl)cc1C` [Compound 266, N-[3-chloro-4-(3,4-dimethylphenyl)phenyl]-7-methyl-2,3-dioxo-1,4-dihydroquinoxaline-6-sulfonamide], for which the concentration for a half-maximal effect (EC50) in test [1] and in test [2] was 100 to 1000 nM each time.

For `[2H]C([2H])([2H])Oc1ccc(-c2ccc(NS(=O)(=O)c3cc4[nH]c(=O)c(=O)[nH]c4cc3C)cc2Cl)cc1` [Compound 267, N-[3-chloro-4-[4-(trideuteriomethoxy)phenyl]phenyl]-7-methyl-2,3-dioxo-1,4-dihydroquinoxaline-6-sulfonamide], the concentration for a half-maximal effect (EC50) in test [1] is < 30 nM; in test [2], 30 to 100 nM.

Consider `Cc1cc2[nH]c(=O)c(=O)[nH]c2cc1S(=O)(=O)Nc1ccc(-c2ccc(OC3CC3)cc2)c(Cl)c1` [Compound 268, N-[3-chloro-4-[4-(cyclopropoxy)phenyl]phenyl]-7-methyl-2,3-dioxo-1,4-dihydroquinoxaline-6-sulfonamide], for which the concentration for a half-maximal effect (EC50) was 30 to 100 nM in test [1] and 100 to 1000 nM in test [2].

As to `Cc1nc2ccc(-c3ccc(NS(=O)(=O)c4cc5[nH]c(=O)c(=O)[nH]c5cc4C)cc3Cl)cc2o1` [Compound 269, N-[3-chloro-4-(2-methyl-1,3-benzoxazol-6-yl)phenyl]-7-methyl-2,3-dioxo-1,4-dihydroquinoxaline-6-sulfonamide], the half-maximal effective concentration (EC50) in test [1] and in test [2] was < 30 nM each time.

`Cc1cc2[nH]c(=O)c(=O)[nH]c2cc1S(=O)(=O)Nc1ccc(-c2ccc3[nH]ccc3c2)c(Cl)c1` [Compound 270, N-[3-chloro-4-(1H-indol-5-yl)phenyl]-7-methyl-2,3-dioxo-1,4-dihydroquinoxaline-6-sulfonamide]: the figures for the EC50 in test [1] and in test [2] were 100 to 1000 nM and 30 to 100 nM, respectively.

In the case of `Cc1cc2[nH]c(=O)c(=O)[nH]c2cc1S(=O)(=O)Nc1ccc(-c2ccc3cc[nH]c3c2)c(Cl)c1` [Compound 271, N-[3-chloro-4-(1H-indol-6-yl)phenyl]-7-methyl-2,3-dioxo-1,4-dihydroquinoxaline-6-sulfonamide], the EC50 in test [1] and in test [2] was < 30 nM throughout.

Regarding `Cc1nc2cc(-c3ccc(NS(=O)(=O)c4cc5[nH]c(=O)c(=O)[nH]c5cc4C)cc3Cl)ccc2o1` [Compound 272, N-[3-chloro-4-(2-methyl-1,3-benzoxazol-5-yl)phenyl]-7-methyl-2,3-dioxo-1,4-dihydroquinoxaline-6-sulfonamide], the EC50 in test [1] and in test [2] was < 30 nM each time.

In the case of `Cc1cc2[nH]c(=O)c(=O)[nH]c2cc1S(=O)(=O)Nc1ccc(-c2ccc3[nH]ncc3c2)c(Cl)c1` [Compound 273, N-[3-chloro-4-(1H-indazol-5-yl)phenyl]-7-methyl-2,3-dioxo-1,4-dihydroquinoxaline-6-sulfonamide], the 50% effective concentration (EC50) was in the range of 30 to 100 nM in test [1] and 100 to 1000 nM in test [2].

In the case of `Cc1cc2[nH]c(=O)c(=O)[nH]c2cc1S(=O)(=O)Nc1ccc(C2=CCCCC2)c(Cl)c1` [Compound 274, N-[3-chloro-4-(cyclohexen-1-yl)phenyl]-7-methyl-2,3-dioxo-1,4-dihydroquinoxaline-6-sulfonamide], the EC50 in test [1] and in test [2] was 30 to 100 nM in each case.

Turning to `Cc1cc2[nH]c(=O)c(=O)[nH]c2cc1S(=O)(=O)Nc1ccc(-c2ccc(C(F)(F)F)nc2)c(Cl)c1` [Compound 275, N-[3-chloro-4-[6-(trifluoromethyl)-3-pyridyl]phenyl]-7-methyl-2,3-dioxo-1,4-dihydroquinoxaline-6-sulfonamide], the EC50 lay within 100 to 1000 nM in test [1] and 1000 to 6000 nM in test [2].

With `O=c1[nH]c2cc(OCC(F)(F)F)c(S(=O)(=O)Nc3ccc(OC(F)(F)F)cc3)cc2[nH]c1=O` [Compound 276, 2,3-dioxo-7-(2,2,2-trifluoroethoxy)-N-[4-(trifluoromethoxy)phenyl]-1,4-dihydroquinoxaline-6-sulfonamide], the concentration for a half-maximal effect (EC50) in test [1] is 30 to 100 nM; in test [2], < 30 nM.

Take `Cc1cc2[nH]c(=O)c(=O)[nH]c2cc1S(=O)(=O)Nc1ccc(-c2ccc(OC(F)(F)F)cc2)c(Cl)c1` [Compound 277, N-[3-chloro-4-[4-(trifluoromethoxy)phenyl]phenyl]-7-methyl-2,3-dioxo-1,4-dihydroquinoxaline-6-sulfonamide]: the EC50 in test [1] and in test [2] was 100 to 1000 nM in each case.

As to `CCOc1cc2[nH]c(=O)c(=O)[nH]c2cc1S(=O)(=O)Nc1ccc(OC(F)(F)F)cc1` [Compound 278, 7-ethoxy-2,3-dioxo-N-[4-(trifluoromethoxy)phenyl]-1,4-dihydroquinoxaline-6-sulfonamide], the EC50 in test [1] is 100 to 1000 nM; in test [2], < 30 nM.

As to `Cc1cc2[nH]c(=O)c(=O)[nH]c2cc1S(=O)(=O)Nc1cnc(-c2cncc(Cl)c2)c(Cl)c1` [Compound 279, N-[5-chloro-6-(5-chloro-3-pyridyl)-3-pyridyl]-7-methyl-2,3-dioxo-1,4-dihydroquinoxaline-6-sulfonamide], the EC50 in test [1] and in test [2] was 100 to 1000 nM each time.

Turning to `Cc1cc2[nH]c(=O)c(=O)[nH]c2cc1S(=O)(=O)Nc1ccc(-c2cc[nH]c(=O)c2)c(Cl)c1` [Compound 280, N-[3-chloro-4-(2-oxo-1H-pyridin-4-yl)phenyl]-7-methyl-2,3-dioxo-1,4-dihydroquinoxaline-6-sulfonamide], the EC50 in test [1] is 1000 to 3500 nM; in test [2] it was 100 to 1000 nM.

As to `O=c1[nH]c2cc(NCCO)c(S(=O)(=O)Nc3ccc(OC(F)(F)F)cc3)cc2[nH]c1=O` [Compound 281, 7-(2-hydroxyethylamino)-2,3-dioxo-N-[4-(trifluoromethoxy)phenyl]-1,4-dihydroquinoxaline-6-sulfonamide], the EC50 in test [1] and in test [2] was < 30 nM throughout.

For `Cc1cc2[nH]c(=O)c(=O)[nH]c2cc1S(=O)(=O)Nc1ccc(-c2cc(CO)ccc2F)c(Cl)c1` [Compound 282, N-[3-chloro-4-[2-fluoro-5-(hydroxymethyl)phenyl]phenyl]-7-methyl-2,3-dioxo-1,4-dihydroquinoxaline-6-sulfonamide], the EC50 in test [1] is 30 to 100 nM; in test [2] it was 100 to 1000 nM.

With `Cc1cc2[nH]c(=O)c(=O)[nH]c2cc1S(=O)(=O)Nc1ccc(-c2ccc3c(c2)ncn3C)c(Cl)c1` [Compound 283, N-[3-chloro-4-(1-methylbenzimidazol-5-yl)phenyl]-7-methyl-2,3-dioxo-1,4-dihydroquinoxaline-6-sulfonamide], the 50% effective concentration (EC50) in test [1] and in test [2] was 100 to 1000 nM throughout.

`Cc1cc2[nH]c(=O)c(=O)[nH]c2cc1S(=O)(=O)Nc1ccc(C2CCCCC2)c(Cl)c1` [Compound 284, N-(3-chloro-4-cyclohexyl-phenyl)-7-methyl-2,3-dioxo-1,4-dihydroquinoxaline-6-sulfonamide]: the figures for the EC50 in test [1] and in test [2] were 30 to 100 nM and 100 to 1000 nM, respectively.

Consider `Cc1cc2[nH]c(=O)c(=O)[nH]c2cc1S(=O)(=O)Nc1ccc(-n2ccnc2)c(Cl)c1` [Compound 285, N-(3-chloro-4-imidazol-1-yl-phenyl)-7-methyl-2,3-dioxo-1,4-dihydroquinoxaline-6-sulfonamide], for which the 50% effective concentration (EC50) in test [1] and in test [2] was 100 to 1000 nM each time.

With `Cc1ccc(-c2ccc(NS(=O)(=O)c3cc4[nH]c(=O)c(=O)[nH]c4cc3C)cc2Cl)cc1Cl` [Compound 286, N-[3-chloro-4-(3-chloro-4-methyl-phenyl)phenyl]-7-methyl-2,3-dioxo-1,4-dihydroquinoxaline-6-sulfonamide], the EC50 in test [1] was 30 to 100 nM; in test [2] it was 100 to 1000 nM.
